Molecules are shown by their SMILES.

One assay relates to Erysiphe graminis. The assay is described as follows: Erysiphe graminis potting method. It is filed as in vivo. The following applies: Blumeria graminis; 100 mg/L; read-out: Erysiphe graminis control rating. How it is done:
The fungicidal activity of the control agents and target compounds are determined. The test and investigation method refers to SOP-SC-1116 Erysiphe graminis potting method in disinfectant rolls written by KANGZHUO and GUBAOGEN in “Standard operation specification for testing biological activity of pesticides”.
As to `C=C(CN(C(=O)c1c(C(F)F)nn(C)c1F)C1CC1)c1ccc(Cl)c(Cl)c1` [Compound 10], the pest or weed control at 100 µg/mL was 80 to 100%.

For the compound `CC(C(=C(Cl)Cl)c1ccc(C#CC2CC2)cc1F)N(C(=O)c1c(C(F)F)nn(C)c1F)C1CC1` (stereo not drawn) [Compound 219], the pest or weed control at 100 µg/mL was in the range of 80 to 100%.

On to `Cn1nc(C(F)F)c(C(=O)N(CC(=C(Cl)Cl)c2cccc(F)c2)C2CC2)c1F` [Compound 124], for which the pest or weed control at 100 µg/mL was in the range of 80 to 100%.

In the case of `Cc1ccc(C(C)C)c(C(=C(Cl)Cl)C(C)N(C(=O)c2c(C(F)F)nn(C)c2F)C2CC2)c1` (stereo not drawn) [Compound 198], the pest or weed control at 100 µg/mL was in the range of 80 to 100%.

Turning to `Cn1nc(C(F)F)c(C(=O)N(CC(=C(Cl)Cl)c2cc(F)ccc2F)C2CC2)c1F` [Compound 127], the pest or weed control at 100 µg/mL is 80 to 100%.

On to `CC(C(=C(Cl)Cl)c1ccc(F)cc1)N(C(=O)c1c(C(F)F)nn(C)c1F)C1CC1` (stereo not drawn) [Compound 178], for which the pest or weed control at 100 µg/mL fell in the range of 80 to 100%.

For `C=C(CN(C(=O)c1c(C(F)F)nn(C)c1F)C1CC1)c1cccc(C)c1` [Compound 32], the pest or weed control at 100 µg/mL was 80 to 100%.

For the compound `C=C(CN(C(=O)c1c(C(F)F)nn(C)c1F)C1CC1)c1cc(C(C)(C)C)ccc1C` [Compound 40], the pest or weed control at 100 µg/mL lay within 80 to 100%.

Take `C=C(CN(C(=O)c1c(C(F)F)nn(C)c1F)C1CC1)c1ccc(S(=O)(=O)CC)cc1` [Compound 52]: the pest or weed control at 100 µg/mL lay in the range of 80 to 100%.

As to `C=C(CN(C(=O)c1c(C(F)F)nn(C)c1F)C1CC1)c1ccccc1C` [Compound 6], the pest or weed control at 100 µg/mL is 80 to 100%.

Take `C=C(CN(C(=O)c1c(C(F)F)nn(C)c1F)C1CC1)c1ccc(F)cc1` [Compound 22]: the pest or weed control at 100 µg/mL lay within 80 to 100%.

Consider `Cn1nc(C(F)F)c(C(=O)N(CC(=C(Cl)Cl)c2cc(Cl)cc(Cl)c2)C2CC2)c1F` [Compound 122], for which the pest or weed control at 100 µg/mL was 80 to 100%.

`C=C(c1c(F)cccc1F)C(C)N(C(=O)c1c(C(F)F)nn(C)c1F)C1CC1` (stereo not drawn) [Compound 78]: the pest or weed control at 100 µg/mL was in the range of 80 to 100%.

On to `Cc1ccc(C(=C(Cl)Cl)C(C)N(C(=O)c2c(C(F)F)nn(C)c2F)C2CC2)cc1` (stereo not drawn) [Compound 203], for which the pest or weed control at 100 µg/mL was in the range of 80 to 100%.

With `CC(C(=C(Cl)Cl)c1ccccc1S(C)(=O)=O)N(C(=O)c1c(C(F)F)nn(C)c1F)C1CC1` (stereo not drawn) [Compound 214], the pest or weed control at 100 µg/mL lay within 80 to 100%.

In the case of `Cn1nc(C(F)F)c(C(=O)N(CC(=C(Cl)Cl)c2ccccc2)C2CC2)c1F` [Compound 111], the pest or weed control at 100 µg/mL lay in the range of 80 to 100%.

In the case of `C=C(c1ccc(C#CC2CC2)cc1F)C(C)N(C(=O)c1c(C(F)F)nn(C)c1F)C1CC1` (stereo not drawn) [Compound 110], the pest or weed control at 100 µg/mL was 80 to 100%.

Regarding `Cn1cc(C(=O)N(CC(=C(Cl)Cl)c2ccc(Cl)cc2)C2CC2)c(C(F)F)n1` [Compound 114], the pest or weed control at 100 µg/mL lay in the range of 80 to 100%.

In the case of `C=C(CN(C(=O)c1c(C(F)F)nn(C)c1F)C1CC1)c1ccccc1S(C)(=O)=O` [Compound 50], the pest or weed control at 100 µg/mL fell in the range of 80 to 100%.

Another assay deals with Sphaerotheca fuliginea. The assay can be described thus: Sphaerotheca fuliginea potting method. The following applies: Podosphaera fuliginea; 100 mg/L; read-out: Sphaerotheca fuliginea control rating. It is filed as in vivo. How it is done:
The fungicidal activity of the control agents and target compounds are determined. The test and investigation method refers to SOP-SC-1101 sphaerotheca fuliginea potting method in disinfectant rolls written by KANGZHUO and GUBAOGEN in “Standard operation specification for testing biological activity of pesticides”.
For the compound `C=C(CN(C(=O)c1c(C(F)F)nn(C)c1F)C1CC1)c1ccc(Cl)c(Cl)c1` [Compound 10], the pest or weed control at 100 µg/mL fell in the range of 80 to 100%.

Take `CC(C(=C(Cl)Cl)c1ccc(C#CC2CC2)cc1F)N(C(=O)c1c(C(F)F)nn(C)c1F)C1CC1` (stereo not drawn) [Compound 219]: the pest or weed control at 100 µg/mL was in the range of 80 to 100%.

As for `Cn1nc(C(F)F)c(C(=O)N(CC(=C(Cl)Cl)c2cccc(F)c2)C2CC2)c1F` [Compound 124], the pest or weed control at 100 µg/mL fell in the range of 80 to 100%.

For the compound `Cc1ccc(C(C)C)c(C(=C(Cl)Cl)C(C)N(C(=O)c2c(C(F)F)nn(C)c2F)C2CC2)c1` (stereo not drawn) [Compound 198], the pest or weed control at 100 µg/mL is 80 to 100%.

Consider `Cn1nc(C(F)F)c(C(=O)N(CC(=C(Cl)Cl)c2cc(F)ccc2F)C2CC2)c1F` [Compound 127], for which the pest or weed control at 100 µg/mL lay within 80 to 100%.

With `CC(C(=C(Cl)Cl)c1ccc(F)cc1)N(C(=O)c1c(C(F)F)nn(C)c1F)C1CC1` (stereo not drawn) [Compound 178], the pest or weed control at 100 µg/mL fell in the range of 80 to 100%.

Regarding `C=C(CN(C(=O)c1c(C(F)F)nn(C)c1F)C1CC1)c1cccc(C)c1` [Compound 32], the pest or weed control at 100 µg/mL was 70 to 80%.

In the case of `C=C(CN(C(=O)c1c(C(F)F)nn(C)c1F)C1CC1)c1cc(C(C)(C)C)ccc1C` [Compound 40], the pest or weed control at 100 µg/mL was 70 to 80%.

Take `C=C(CN(C(=O)c1c(C(F)F)nn(C)c1F)C1CC1)c1ccc(S(=O)(=O)CC)cc1` [Compound 52]: the pest or weed control at 100 µg/mL is 80 to 100%.

As for `C=C(CN(C(=O)c1c(C(F)F)nn(C)c1F)C1CC1)c1ccccc1C` [Compound 6], the pest or weed control at 100 µg/mL lay in the range of 80 to 100%.

For the compound `C=C(CN(C(=O)c1c(C(F)F)nn(C)c1F)C1CC1)c1ccc(F)cc1` [Compound 22], the pest or weed control at 100 µg/mL was 80 to 100%.

For `Cn1nc(C(F)F)c(C(=O)N(CC(=C(Cl)Cl)c2cc(Cl)cc(Cl)c2)C2CC2)c1F` [Compound 122], the pest or weed control at 100 µg/mL is 80 to 100%.

Regarding `C=C(c1c(F)cccc1F)C(C)N(C(=O)c1c(C(F)F)nn(C)c1F)C1CC1` (stereo not drawn) [Compound 78], the pest or weed control at 100 µg/mL was 80 to 100%.

Consider `Cc1ccc(C(=C(Cl)Cl)C(C)N(C(=O)c2c(C(F)F)nn(C)c2F)C2CC2)cc1` (stereo not drawn) [Compound 203], for which the pest or weed control at 100 µg/mL was 80 to 100%.

As to `CC(C(=C(Cl)Cl)c1ccccc1S(C)(=O)=O)N(C(=O)c1c(C(F)F)nn(C)c1F)C1CC1` (stereo not drawn) [Compound 214], the pest or weed control at 100 µg/mL lay in the range of 80 to 100%.

Take `Cn1nc(C(F)F)c(C(=O)N(CC(=C(Cl)Cl)c2ccccc2)C2CC2)c1F` [Compound 111]: the pest or weed control at 100 µg/mL is 80 to 100%.

Take `C=C(c1ccc(C#CC2CC2)cc1F)C(C)N(C(=O)c1c(C(F)F)nn(C)c1F)C1CC1` (stereo not drawn) [Compound 110]: the pest or weed control at 100 µg/mL was 80 to 100%.

For the compound `Cn1cc(C(=O)N(CC(=C(Cl)Cl)c2ccc(Cl)cc2)C2CC2)c(C(F)F)n1` [Compound 114], the pest or weed control at 100 µg/mL was in the range of 80 to 100%.

For `C=C(CN(C(=O)c1c(C(F)F)nn(C)c1F)C1CC1)c1ccccc1S(C)(=O)=O` [Compound 50], the pest or weed control at 100 µg/mL fell in the range of 80 to 100%.

For a further assay, the target named is T1, succinate dehydrogenase (Sus scrofa, UniProt A5GZW8+D0VWV4+Q007T0).
T1 construct: isolated from porcine hearts; from tissue; host or cells: porcine heart
T1 sequence (Q0QF01 43-664 partner): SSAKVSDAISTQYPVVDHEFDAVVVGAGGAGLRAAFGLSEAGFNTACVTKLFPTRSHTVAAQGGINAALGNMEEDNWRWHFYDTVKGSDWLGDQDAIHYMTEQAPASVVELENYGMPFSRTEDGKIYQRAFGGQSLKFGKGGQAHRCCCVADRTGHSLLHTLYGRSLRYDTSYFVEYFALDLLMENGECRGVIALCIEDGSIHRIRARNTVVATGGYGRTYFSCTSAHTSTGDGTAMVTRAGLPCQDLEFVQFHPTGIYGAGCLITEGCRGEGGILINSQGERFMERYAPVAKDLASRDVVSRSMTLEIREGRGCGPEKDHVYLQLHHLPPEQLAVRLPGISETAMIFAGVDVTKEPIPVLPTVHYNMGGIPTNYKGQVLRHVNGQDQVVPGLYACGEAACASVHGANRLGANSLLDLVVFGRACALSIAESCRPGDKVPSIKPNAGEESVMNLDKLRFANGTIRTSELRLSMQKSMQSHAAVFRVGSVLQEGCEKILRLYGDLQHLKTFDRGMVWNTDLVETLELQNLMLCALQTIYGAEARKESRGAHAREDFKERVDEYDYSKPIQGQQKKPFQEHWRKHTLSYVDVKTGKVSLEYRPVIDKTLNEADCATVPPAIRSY
T1 sequence (Q007T0 29-280): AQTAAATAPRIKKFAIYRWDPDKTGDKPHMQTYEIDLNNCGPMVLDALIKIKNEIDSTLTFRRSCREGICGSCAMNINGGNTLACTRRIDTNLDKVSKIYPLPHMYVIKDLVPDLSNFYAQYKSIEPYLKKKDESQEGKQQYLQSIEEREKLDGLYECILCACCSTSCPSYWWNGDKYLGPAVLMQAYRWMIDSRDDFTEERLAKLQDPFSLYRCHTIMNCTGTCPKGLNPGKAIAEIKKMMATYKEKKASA
T1 sequence (D0VWV4 30-169): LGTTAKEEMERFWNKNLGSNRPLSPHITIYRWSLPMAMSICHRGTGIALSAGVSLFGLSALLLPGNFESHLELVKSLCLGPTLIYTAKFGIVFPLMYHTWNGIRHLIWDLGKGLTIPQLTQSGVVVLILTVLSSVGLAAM
T1 sequence (A5GZW8 57-159 limits assumed): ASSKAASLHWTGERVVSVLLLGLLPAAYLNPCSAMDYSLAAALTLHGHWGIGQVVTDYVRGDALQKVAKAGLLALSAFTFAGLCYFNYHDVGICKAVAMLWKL
The assay is described as follows: Enzyme activity assay, succinate dehydrogenase (DCIP reduction). It is filed as biochemical, porcine. The following applies: read-out: Inhibitors (10 μM, SQR). The method, boiled down: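 Porcine heart succinate dehydrogenase (2 nM) in 100 mM sodium phosphate pH 7.4, 0.3 mM EDTA, 20 mM sodium succinate and 53 μM DCIP at 23° C with stirring. DCIP reduction followed at 600 nm (ε 21 mM^−1 cm^−1); linear slope minus baseline gives initial rate.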
Take `C=C(CN(C(=O)c1c(C(F)F)nn(C)c1F)C1CC1)c1ccc(Cl)c(Cl)c1` [Compound 10]: the inhibition at 10 µM was over 90%.

Regarding `CC(C(=C(Cl)Cl)c1ccc(C#CC2CC2)cc1F)N(C(=O)c1c(C(F)F)nn(C)c1F)C1CC1` (stereo not drawn) [Compound 219], the inhibition at 10 µM is over 90%.

With `Cn1nc(C(F)F)c(C(=O)N(CC(=C(Cl)Cl)c2cccc(F)c2)C2CC2)c1F` [Compound 124], the inhibition at 10 µM is over 90%.

Turning to `Cc1ccc(C(C)C)c(C(=C(Cl)Cl)C(C)N(C(=O)c2c(C(F)F)nn(C)c2F)C2CC2)c1` (stereo not drawn) [Compound 198], the inhibition at 10 µM is over 90%.

For the compound `Cn1nc(C(F)F)c(C(=O)N(CC(=C(Cl)Cl)c2cc(F)ccc2F)C2CC2)c1F` [Compound 127], the inhibition at 10 µM is over 90%.

With `CC(C(=C(Cl)Cl)c1ccc(F)cc1)N(C(=O)c1c(C(F)F)nn(C)c1F)C1CC1` (stereo not drawn) [Compound 178], the inhibition at 10 µM was over 90%.

Consider `C=C(CN(C(=O)c1c(C(F)F)nn(C)c1F)C1CC1)c1cccc(C)c1` [Compound 32], for which the inhibition at 10 µM was over 90%.

`C=C(CN(C(=O)c1c(C(F)F)nn(C)c1F)C1CC1)c1cc(C(C)(C)C)ccc1C` [Compound 40]: the inhibition at 10 µM was over 90%.

As to `C=C(CN(C(=O)c1c(C(F)F)nn(C)c1F)C1CC1)c1ccc(S(=O)(=O)CC)cc1` [Compound 52], the inhibition at 10 µM was over 90%.

In the case of `C=C(CN(C(=O)c1c(C(F)F)nn(C)c1F)C1CC1)c1ccccc1C` [Compound 6], the inhibition at 10 µM is over 90%.

As for `C=C(CN(C(=O)c1c(C(F)F)nn(C)c1F)C1CC1)c1ccc(F)cc1` [Compound 22], the inhibition at 10 µM is over 90%.

As to `Cn1nc(C(F)F)c(C(=O)N(CC(=C(Cl)Cl)c2cc(Cl)cc(Cl)c2)C2CC2)c1F` [Compound 122], the inhibition at 10 µM is over 90%.

On to `C=C(c1c(F)cccc1F)C(C)N(C(=O)c1c(C(F)F)nn(C)c1F)C1CC1` (stereo not drawn) [Compound 78], for which the inhibition at 10 µM is over 90%.

For the compound `Cc1ccc(C(=C(Cl)Cl)C(C)N(C(=O)c2c(C(F)F)nn(C)c2F)C2CC2)cc1` (stereo not drawn) [Compound 203], the inhibition at 10 µM is over 90%.

For the compound `CC(C(=C(Cl)Cl)c1ccccc1S(C)(=O)=O)N(C(=O)c1c(C(F)F)nn(C)c1F)C1CC1` (stereo not drawn) [Compound 214], the inhibition at 10 µM is over 90%.

As for `Cn1nc(C(F)F)c(C(=O)N(CC(=C(Cl)Cl)c2ccccc2)C2CC2)c1F` [Compound 111], the inhibition at 10 µM is over 90%.

In the case of `C=C(c1ccc(C#CC2CC2)cc1F)C(C)N(C(=O)c1c(C(F)F)nn(C)c1F)C1CC1` (stereo not drawn) [Compound 110], the inhibition at 10 µM was over 90%.

In the case of `Cn1cc(C(=O)N(CC(=C(Cl)Cl)c2ccc(Cl)cc2)C2CC2)c(C(F)F)n1` [Compound 114], the inhibition at 10 µM is over 90%.

As for `C=C(CN(C(=O)c1c(C(F)F)nn(C)c1F)C1CC1)c1ccccc1S(C)(=O)=O` [Compound 50], the inhibition at 10 µM was over 90%.

The values are drawn from patent US12540118B2, “Dendrene amide compound, bactericide and use thereof” (Jiangsu Flag Chemical Industry Co., Ltd., priority 2020, dated 2026).
